Experimental data as given in patent US7998950B2, “Antiviral compounds” (Gilead Sciences, Inc., priority 2008, dated 2011).

system: HIV-IIIb; test: Antiviral assay in MT-2 cells infected with HIV-IIIb; format: cell-based; conditions: Human immunodeficiency virus 1, IIIB, MT2, 120 h, MT-2 cells infected with HIV-IIIb, m.o.i. 0.01, 10% FBS, 5 days at 37° C., CellTiter-Glo chemiluminescence; read-out: EC50 in MT-2 cells

Compound	EC50 [nM]
CNC(=O)c1c(O)c2ncc(Cc3ccc(F)cc3)c3c2n(c1=O)C=C(C(=O)NC(C)(C)CN)O3 [Example 121]	5.8
CC(C)(O)CNC(=O)c1c(O)c2ncc(Cc3ccc(F)cc3)c3c2n(c1=O)CC(F)(F)CN3 [A-14]	7
COCCNC(=O)c1c(O)c2ncc(Cc3ccc(F)cc3)c3c2n(c1=O)CCN3 [compound 33]	3.3
O=C(NCCCN1CCOCC1)c1c(O)c2ncc(Cc3ccc(F)cc3)c3c2n(c1=O)CC(F)(F)CN3 [Example 153]	12
C[C@@H]1CCCN1CCCNC(=O)c1c(O)c2ncc(Cc3ccc(F)cc3)c3c2n(c1=O)CC(F)(F)CN3 [Example 158]	8.2
O=C(NC1CC1)c1c(O)c2ncc(Cc3ccc(F)cc3)c3c2n(c1=O)CCCN3 [compound 50]	17
CC(C)(C#N)CNC(=O)C1=Cn2c(=O)c(C(=O)NC3CC3)c(O)c3ncc(Cc4ccc(F)cc4)c(c32)O1 [Example 135]	2.7
CNC(=O)c1c(O)c2ncc(Cc3ccc(F)cc3)c3c2n(c1=O)C[C@@H](C(=O)NC)O3 [A-65]	6.3
O=C(NCCc1ncc[nH]1)c1c(O)c2ncc(Cc3ccc(F)cc3)c3c2n(c1=O)CC(F)(F)CN3 [Example 146]	5.5
CNC(=O)c1c(O)c2ncc(Cc3ccc(F)cc3)c3c2n(c1=O)C[C@H](CN(C)S(C)(=O)=O)O3 [Example 208]	0.6
CNC(=O)c1c(O)c2ncc(Cc3ccc(F)cc3)c3c2n(c1=O)C[C@@H](CN(C)S(C)(=O)=O)O3 [Example 206]	0.1
COCCNC(=O)C1=Cn2c(=O)c(C(=O)NCCOC)c(O)c3ncc(Cc4ccc(F)cc4)c(c32)O1 [Example 114]	6.4
CCNC(=O)C1=Cn2c(=O)c(C(=O)NC)c(O)c3ncc(Cc4ccc(F)cc4)c(c32)O1 [A-90]	2.9
CNC(=O)C1=Cn2c(=O)c(C(=O)NCCO)c(O)c3ncc(Cc4ccc(F)cc4)c(c32)O1 [A-89]	23
CNC(=O)c1c(O)c2ncc(Cc3ccc(F)cc3)c3c2n(c1=O)C[C@H](CO)O3 [A-69]	4
O=C(NCCN1CCCS1(=O)=O)c1c(O)c2ncc(Cc3ccc(F)cc3)c3c2n(c1=O)CC(F)(F)CN3 [Example 162]	4.6
O=C(NCC1(O)CC1)c1c(O)c2ncc(Cc3ccc(F)cc3)c3c2n(c1=O)CC(F)(F)CN3 [A-11]	3.5
CNC(=O)c1c(O)c2ncc(Cc3ccc(F)cc3)c3c2n(c1=O)C=C(C(=O)NCC1(C#N)CC1)O3 [Example 138]	1.5
CC1(C)Cn2c(=O)c(C(=O)NCCN3CCOCC3)c(O)c3ncc(Cc4ccc(F)cc4)c1c32 [compound 60]	400
CNC(=O)c1c(O)c2ncc(Cc3ccc(F)cc3)c3c2n(c1=O)C=C(C(=O)NC(C)(C)C)O3 [Example 136]	7.2
O=C(NCCOCc1ccccc1)c1c(O)c2ncc(Cc3ccc(F)cc3)c3c2n(c1=O)CCN3 [compound 32]	6
CNC(=O)c1c(O)c2ncc(Cc3ccc(F)c(Cl)c3)c3c2n(c1=O)C[C@@H](C(=O)NC)O3 [Example 177]	1.2
CNC(=O)[C@@H]1Cn2c(=O)c(C(=O)NCCOC)c(O)c3ncc(Cc4ccc(F)cc4)c(c32)O1 [Example 164]	37

Compound	EC50 [nM]
CC(=O)N1CCn2c(=O)c(C(=O)NCCO)c(O)c3ncc(Cc4ccc(F)cc4)c1c32 [compound 43]	982
O=C(NCCO)c1c(O)c2ncc(Cc3ccc(F)cc3)c3c2n(c1=O)CC(CO)O3 (stereo not shown) [A-26]	16
CNC(=O)c1c(O)c2ncc(Cc3ccc(F)cc3)c3c2n(c1=O)C=C(C(=O)NCC(C)(C)O)O3 [Example 140]	3.5
O=C(NCCO)c1c(O)c2ncc(Cc3ccc(F)cc3)c3c2n(c1=O)CCO3 [compound 12]	3.2
CNC[C@H]1Cn2c(=O)c(C(=O)NC)c(O)c3ncc(Cc4ccc(F)cc4)c(c32)O1 [Example 197]	32
O=C(NC1CC(O)C1)c1c(O)c2ncc(Cc3ccc(F)cc3)c3c2n(c1=O)CC(F)(F)CN3 (stereo not shown) [A-18]	7
CNC(=O)c1c(O)c2ncc(Cc3ccc(F)cc3)c3c2n(c1=O)C[C@@H](CN(C)C(=O)c1nnc(C)o1)O3 [Example 207]	4.6
CCN(CC)C(=O)C1=Cn2c(=O)c(C(=O)NC)c(O)c3ncc(Cc4ccc(F)cc4)c(c32)O1 [Example 103]	10
O=C(NCCN1CCNS1(=O)=O)c1c(O)c2ncc(Cc3ccc(F)cc3)c3c2n(c1=O)CC(F)(F)CN3 [Example 144]	20
CNC(=O)c1c(O)c2ncc(Cc3ccc(F)cc3)c3c2n(c1=O)C[C@@H](C(=O)NCC(C)(C)O)O3 [Example 174]	2.6
CNC(=O)c1c(O)c2ncc(Cc3ccc(F)cc3)c3c2n(c1=O)C[C@H](CC#N)O3 [Example 198]	3
CN1CCn2c(=O)c(C(=O)NCCO)c(O)c3ncc(Cc4ccc(F)cc4)c1c32 [compound 45]	2
N#CCNC(=O)c1c(O)c2ncc(Cc3ccc(F)cc3)c3c2n(c1=O)CC(F)(F)CN3 [Example 143]	4
CNC(=O)c1c(O)c2ncc(Cc3ccc(F)cc3)c3c2n(c1=O)C=C(C(=O)N1CCCCC1)O3 [Example 131]	13.9
CNC(=O)c1c(O)c2ncc(Cc3ccc(F)cc3)c3c2n(c1=O)C=C(C(=O)NC(CO)CO)O3 [A-94]	49
N#CCCCNC(=O)c1c(O)c2ncc(Cc3ccc(F)cc3)c3c2n(c1=O)CC(F)(F)CN3 [A-17]	2.5
COCCNC(=O)c1c(O)c2ncc(Cc3ccc(F)cc3)c3c2n(c1=O)CC(F)(F)CN3 [A-10]	4
O=C(NCCN1CCNCC1)c1c(O)c2ncc(Cc3ccc(F)cc3)c3c2n(c1=O)CCO3 [compound 18]	20
O=C(NCC1(CO)CCC1)c1c(O)c2ncc(Cc3ccc(F)cc3)c3c2n(c1=O)CC(F)(F)CN3 [Example 150]	6
CNC(=O)[C@@H]1Cn2c(=O)c(C(N)=O)c(O)c3ncc(Cc4ccc(F)cc4)c(c32)O1 [Example 167]	25.6
O=C(NCC1(CO)CC1)c1c(O)c2ncc(Cc3ccc(F)cc3)c3c2n(c1=O)CC(F)(F)CN3 [Example 152]	7
CNC(=O)c1c(O)c2ncc(Cc3ccc(F)cc3)c3c2n(c1=O)C[C@@H](CC#N)O3 [Example 181]	1.2
Cn1cnnc1CCNC(=O)c1c(O)c2ncc(Cc3ccc(F)cc3)c3c2n(c1=O)CC(F)(F)CN3 [Example 148]	45.6

Compound	EC50 [nM]
CC(C)(O)CNC(=O)c1c(O)c2ncc(Cc3ccc(F)cc3)c3c2n(c1=O)CCN3 [compound 39]	9.5
CNC(=O)c1c(O)c2ncc(Cc3ccc(F)cc3)c3c2n(c1=O)C[C@@H](CO)O3 [A-67]	1.7
CNC(=O)c1c(O)c2ncc(Cc3ccc(F)cc3)c3c2n(c1=O)CCN3 [compound 37]	5.8
CNC(=O)[C@@H]1Cn2c(=O)c(C(=O)NCCCO)c(O)c3ncc(Cc4ccc(F)cc4)c(c32)O1 [Example 166]	9
O=C(NCCCN1CCCC1=O)c1c(O)c2ncc(Cc3ccc(F)cc3)c3c2n(c1=O)CCN3 [compound 34]	9.5
O=C(NCC(F)(F)CO)c1c(O)c2ncc(Cc3ccc(F)cc3)c3c2n(c1=O)CC(F)(F)CN3 [Example 149]	5
CNC(=O)c1c(O)c2ncc(Cc3ccc(F)cc3)c3c2n(c1=O)C=C(C(=O)N1CCOCC1)O3 [A-83]	37
CNC(=O)c1c(O)c2ncc(Cc3ccc(F)cc3)c3c2n(c1=O)C=C(C(=O)NCCOC)O3 [Example 113]	5.3
CNC(=O)c1c(O)c2ncc(Cc3ccc(F)cc3)c3c2n(c1=O)C[C@@H](Cn1ccnc1C)O3 [Example 203]	12
CCNC(=O)c1c(O)c2ncc(Cc3ccc(F)cc3)c3c2n(c1=O)CC(F)(F)CN3 [A-12]	3
Cc1cn2c(=O)c(C(=O)NCCO)c(O)c3ncc(Cc4ccc(F)cc4)c1c32 [compound 72]	20
O=C(NCCN1CCCC1)c1c(O)c2ncc(Cc3ccc(F)cc3)c3c2n(c1=O)CC(F)(F)CN3 [Example 156]	34
CCOCCNC(=O)c1c(O)c2ncc(Cc3ccc(F)cc3)c3c2n(c1=O)CCN3 [compound 38]	8.5
CNC(=O)C1=Cn2c(=O)c(C(=O)NC)c(O)c3ncc(Cc4ccc(F)cc4)c(c32)O1 [A-82]	8
CNC(=O)c1c(O)c2ncc(Cc3ccc(F)cc3)c3c2n(c1=O)C[C@H](CN(C)C(C)=O)O3 [Example 209]	5.1
C[C@@H](CO)NC(=O)c1c(O)c2ncc(Cc3ccc(F)cc3)c3c2n(c1=O)CCCN3 [compound 51]	4
O=C(NCCO)c1c(O)c2ncc(Cc3ccc(F)cc3)c3c2n(c1=O)CCC3 [compound 65]	1.5
CCN(CC)C(=O)C1=Cn2c(=O)c(C(=O)NCCOC)c(O)c3ncc(Cc4ccc(F)cc4)c(c32)O1 [Example 105]	71
O=C(NCCCN1CCCC1)c1c(O)c2ncc(Cc3ccc(F)cc3)c3c2n(c1=O)CC(CO)O3 (stereo not shown) [A-28]	51
CNC(=O)c1c(O)c2ncc(Cc3ccc(F)cc3)c3c2n(c1=O)C[C@@H](C(N)=O)O3 [Example 168]	12
CNC(=O)c1c(O)c2ncc(Cc3ccc(F)cc3)c3c2n(c1=O)C=C(C(=O)NCC(F)(F)F)O3 [Example 115]	3.9
COCCNC(=O)c1c(O)c2ncc(Cc3ccc(F)cc3)c3c2n(c1=O)C=C(C(=O)NC(C)(C)CO)O3 [Example 127]	5
CNC(=O)c1c(O)c2ncc(Cc3ccc(F)cc3)c3c2n(c1=O)C=C(C(=O)NCC(C)(C)C#N)O3 [Example 134]	2.5

same assay, conditions: Human immunodeficiency virus 1, IIIB, MT2, 120 h, read-out: EC50 in MT-2 cells (nM)

Compound	EC50 [nM]
CNC(=O)c1c(O)c2ncc(Cc3ccc(F)cc3)c3c2n(c1=O)C=C(C1=NC(C)(C)CO1)O3 [Example 129]	2.2
CNC(=O)c1c(O)c2ncc(Cc3ccc(F)cc3)c3c2n(c1=O)C=C(C(=O)N(C)C)O3 [A-81]	10.5
CNC(=O)c1c(O)c2ncc(Cc3ccc(F)cc3)c3c2n(c1=O)C=C(COC)O3 [Example 137]	5

same assay, conditions: MT-2 cells infected with HIV-IIIb, m.o.i. 0.01, 10% FBS, 5 days at 37° C., CellTiter-Glo chemiluminescence; read-out: EC50 in MT-2 cells

Compound	EC50 [nM]
CNC(=O)c1c(O)c2ncc(Cc3ccc(F)cc3)c3c2n(c1=O)CC(CO)(CO)O3 [A-109]	7.1
